Here are results for 25 molecules from US20240368135A1 (VERTEX PHARMACEUTICALS INCORPORATED, priority 2021, published 2024).

The target of the experiment is human NaV 1.8 (Homo sapiens, UniProt Q9Y5Y9). Nature of the experiment: E-VIPR assay detecting and measuring NaV inhibition properties. In kind it is cell-based. The note with it: HEK cells expressing truncated human NaV 1.8. Summed up:
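HEK cells expressing truncated, fully active human NaV1.8, with KIR2.1 BacMam co-transduction, were loaded with CC2-DMPE/DiSBAC6(3) voltage-sensing dyes for 20 min at room temperature. Compounds were tested in 11-point 3-fold dilutions (300 nM top final), optionally with 25% human serum, under electrical stimulation with FRET read-out.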

Where [1] appears, read: no human serum, read-out: IC50 in the E-VIPR Assay.
[2] abbreviates: in the presence of human serum (compound numbers followed by *), read-out: IC50 in the E-VIPR Assay, performed in the presence of human serum.

Like-named read-outs stand apart in the source and are kept apart here.

Sequence of human NaV 1.8 (Q9Y5Y9 126-399 limits assumed): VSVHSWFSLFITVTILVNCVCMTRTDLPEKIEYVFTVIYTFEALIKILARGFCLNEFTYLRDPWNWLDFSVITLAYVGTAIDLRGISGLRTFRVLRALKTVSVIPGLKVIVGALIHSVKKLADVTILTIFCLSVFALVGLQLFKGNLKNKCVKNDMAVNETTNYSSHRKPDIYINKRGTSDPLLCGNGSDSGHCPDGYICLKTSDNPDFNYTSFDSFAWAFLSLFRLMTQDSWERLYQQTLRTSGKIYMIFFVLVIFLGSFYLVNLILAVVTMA
Sequence of human NaV 1.8 (Q9Y5Y9 660-890 limits assumed): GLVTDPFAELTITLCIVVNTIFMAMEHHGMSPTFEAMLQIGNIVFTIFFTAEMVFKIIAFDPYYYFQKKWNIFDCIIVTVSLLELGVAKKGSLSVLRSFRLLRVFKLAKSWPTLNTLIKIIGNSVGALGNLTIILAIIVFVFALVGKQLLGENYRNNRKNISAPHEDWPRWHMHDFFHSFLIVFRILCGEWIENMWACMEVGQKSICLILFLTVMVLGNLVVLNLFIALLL
Sequence of human NaV 1.8 (Q9Y5Y9 1148-1722 limits assumed): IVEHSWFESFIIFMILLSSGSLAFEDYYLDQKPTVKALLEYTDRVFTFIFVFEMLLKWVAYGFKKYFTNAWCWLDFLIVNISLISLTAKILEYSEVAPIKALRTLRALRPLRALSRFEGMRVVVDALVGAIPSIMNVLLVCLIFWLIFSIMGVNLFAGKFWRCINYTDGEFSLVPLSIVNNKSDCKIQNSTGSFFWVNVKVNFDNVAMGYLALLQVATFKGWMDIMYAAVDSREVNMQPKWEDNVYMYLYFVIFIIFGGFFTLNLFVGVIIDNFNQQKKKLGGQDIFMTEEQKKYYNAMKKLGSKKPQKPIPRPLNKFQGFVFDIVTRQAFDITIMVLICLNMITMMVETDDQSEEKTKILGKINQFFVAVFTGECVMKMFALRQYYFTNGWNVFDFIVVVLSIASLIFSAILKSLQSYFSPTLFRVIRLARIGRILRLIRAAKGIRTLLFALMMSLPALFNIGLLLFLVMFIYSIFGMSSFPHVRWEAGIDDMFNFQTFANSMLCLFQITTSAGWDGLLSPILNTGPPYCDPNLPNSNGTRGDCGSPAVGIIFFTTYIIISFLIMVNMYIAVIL

With `COc1c([C@H]2[C@H](C(=O)Nc3ccnc(CO)n3)O[C@@](C)(C(F)(F)F)[C@H]2C)ccc(F)c1F` [Compound 381, (2R,3S,4S,5R)-3-(3,4-difluoro-2-methoxyphenyl)-N-(2-(hydroxymethyl)pyrimidin-4-yl)-4,5-dimethyl-5-(trifluoromethyl)tetrahydrofuran-2-carboxamide], the half-maximal inhibitory concentration (IC50) under setting [1] was 10 to 100 nM. Take `COCCOc1c([C@H]2[C@H](C(=O)Nc3ccnc(CCO)c3)O[C@@](C)(C(F)(F)F)[C@H]2C)ccc(F)c1F` [Compound 648, (2R,3S,4S,5R)-3-[3,4-difluoro-2-(2-methoxyethoxy)phenyl]-N-[2-(2-hydroxyethyl)-4-pyridyl]-4,5-dimethyl-5-(trifluoromethyl)tetrahydrofuran-2-carboxamide]: under setting [1], the half-inhibitory concentration (IC50) is under 10 nM. `COc1c(C2C(C(=O)Nc3ccnc(C(O)C(C)O)c3)OC(C)(C(F)(F)F)C2C)ccc(F)c1F` (stereo not shown) [Compound 208, 3-(3,4-difluoro-2-methoxy-phenyl)-N-[2-(1,2-dihydroxypropyl)-4-pyridyl]-4,5-dimethyl-5-(trifluoromethyl)tetrahydrofuran-2-carboxamide]: the 50% inhibitory concentration (IC50) under setting [1] is under 10 nM.

As to `COc1c([C@H]2[C@H](C(=O)Nc3ccnc(N4CCN[C@@H](C)C4=O)c3)O[C@@](C)(C(F)(F)F)[C@H]2C)ccc(F)c1F` [Compound 485, (2R,3S,4S,5R)-3-(3,4-difluoro-2-methoxyphenyl)-4,5-dimethyl-N-(2-((S)-3-methyl-2-oxopiperazin-1-yl)pyridin-4-yl)-5-(trifluoromethyl)tetrahydrofuran-2-carboxamide], the IC50 under setting [1] was under 10 nM. The same measure, in the same setting: the value for `COc1c([C@@H]2[C@@H](C(=O)Nc3ccnc(S(C)(=N)=O)c3)O[C@](C)(C(F)(F)F)[C@@H]2C)ccc(F)c1C` (relative stereo) [Compound 150, rel-(2S,3R,4R,5S)-3-(4-fluoro-2-methoxy-3-methylphenyl)-4,5-dimethyl-N-(2-(S-methylsulfonimidoyl)pyridin-4-yl)-5-(trifluoromethyl)tetrahydrofuran-2-carboxamide] was 100 to 1000 nM; that for `COCC(N)c1cc(NC(=O)[C@@H]2O[C@@](C)(C(F)(F)F)[C@@H](C)[C@H]2c2ccc(F)c(F)c2OC)c(F)cn1` (single isomer, unassigned) [Compound 422, rel-(2R*,3S*,4S*,5R*)-N-(2-(1-amino-2-methoxyethyl)-5-fluoropyridin-4-yl)-3-(3,4-difluoro-2-methoxyphenyl)-4,5-dimethyl-5-(trifluoromethyl)-tetrahydrofuran-2-carboxamide] was 10 to 100 nM; that for `COc1c([C@H]2[C@H](C(=O)Nc3ccnc(S(C)(=N)=O)c3)O[C@@](C)(C(F)(F)F)[C@H]2C)ccc(F)c1C` (relative stereo) [Compound 151, rel-(2R,3S,4S,5R)-3-(4-fluoro-2-methoxy-3-methylphenyl)-4,5-dimethyl-N-(2-(S-methylsulfonimidoyl)pyridin-4-yl)-5-(trifluoromethyl)tetrahydrofuran-2-carboxamide] was under 10 nM. As for `COc1c([C@H]2[C@H](C(=O)NC3CCN(C(C)=O)CC3)O[C@@](C)(C(F)(F)F)[C@H]2C)ccc(F)c1F` [Compound 273, (2R,3S,4S,5R)-N-(1-acetylpiperidin-4-yl)-3-(3,4-difluoro-2-methoxyphenyl)-4,5-dimethyl-5-(trifluoromethyl)tetrahydrofuran-2-carboxamide], the IC50 under setting [1] is at least 1000 nM.

On to `C[C@H]1[C@@H](c2ccc(F)c(F)c2OC(F)F)[C@H](C(=O)Nc2ccnc(CCO)c2)O[C@@]1(C)C(F)(F)F` (single isomer, unassigned) [Compound 458], for which the half-maximal inhibitory concentration (IC50) under setting [1] was under 10 nM.

`COc1c([C@H]2[C@H](C(=O)Nc3cnc(C(N)=O)nc3)O[C@@](C)(C(F)(F)F)[C@H]2C)ccc(F)c1C(F)F` (stereo in doubt) [Compound 173, rel-5-((2R,3S,4S,5R)-3-(3-(difluoromethyl)-4-fluoro-2-methoxyphenyl)-4,5-dimethyl-5-(trifluoromethyl)tetrahydrofuran-2-carboxamido)pyrimidine-2-carboxamide]: the half-maximal inhibitory concentration (IC50) under setting [1] is under 10 nM. Regarding `COc1c([C@H]2[C@H](C(=O)Nc3ccc(C(=O)N(C)O)nc3)O[C@@](C)(C(F)(F)F)[C@H]2C)ccc(F)c1F` [Compound 374, 5-[[(2R,3S,4S,5R)-3-(3,4-difluoro-2-methoxy-phenyl)-4,5-dimethyl-5-(trifluoromethyl)tetrahydrofuran-2-carbonyl]amino]-N-hydroxy-N-methyl-pyridine-2-carboxamide], the IC50 under setting [1] is 10 to 100 nM. `COc1c([C@H]2[C@H](C(=O)Nc3ccc(SC)nc3)O[C@@](C)(C(F)(F)F)[C@H]2C)ccc(F)c1F` [Compound 324, (2R,3S,4S,5R)-3-(3,4-difluoro-2-methoxyphenyl)-4,5-dimethyl-N-(6-(methylthio)pyridin-3-yl)-5-(trifluoromethyl)-tetrahydrofuran-2-carboxamide]: the IC50 under setting [1] fell in the range of 10 to 100 nM. Regarding `C[C@@H]1[C@H](c2ccc(F)c(F)c2OC(F)F)[C@@H](C(=O)Nc2ccnc(S(C)(=O)=O)c2)O[C@]1(C)C(F)(F)F` (single isomer, unassigned) [Compound 86], under setting [2], the IC50 is at least 1000 nM. As for `COc1c([C@H]2[C@H](C(=O)NCCc3cnn(C)c3)O[C@@](C)(C(F)(F)F)[C@H]2C)ccc(F)c1F` [Compound 283, (2R,3S,4S,5R)-3-(3,4-difluoro-2-methoxyphenyl)-4,5-dimethyl-N-(2-(1-methyl-1H-pyrazol-4-yl)ethyl)-5-(trifluoromethyl)tetrahydrofuran-2-carboxamide], the IC50 under setting [1] is at least 1000 nM. As for `C[C@@H]1[C@H](c2ccc(F)c(F)c2OC(F)F)[C@@H](C(=O)Nc2ccnc(C(C)(C)O)c2)O[C@]1(C)C(F)(F)F` (single isomer, unassigned) [Compound 83], the IC50 under setting [2] is at least 1000 nM.

As for `COc1c([C@H]2[C@H](C(=O)Nc3ccnc(N4C(=O)CNC[C@@H]4C)c3)O[C@@](C)(C(F)(F)F)[C@H]2C)ccc(F)c1F` [Compound 479, (2R,3S,4S,5R)-3-(3,4-difluoro-2-methoxyphenyl)-4,5-dimethyl-N-(2-((S)-2-methyl-6-oxopiperazin-1-yl)pyridin-4-yl)-5-(trifluoromethyl)tetrahydrofuran-2-carboxamide], under setting [1], the half-maximal inhibitory concentration (IC50) was 10 to 100 nM. For the molecule `CNC(=O)c1cn2cc(NC(=O)[C@@H]3O[C@@](C)(C(F)(F)F)[C@@H](C)[C@H]3c3ccc(F)c(F)c3OC)ccc2n1` [Compound 258, 6-((2R,3S,4S,5R)-3-(3,4-difluoro-2-methoxyphenyl)-4,5-dimethyl-5-(trifluoromethyl)tetrahydrofuran-2-carboxamido)-N-methylimidazo[1,2-a]pyridine-2-carboxamide], the IC50 under setting [1] is 10 to 100 nM. In the case of `Cc1c(F)ccc(C2C(C(=O)Nc3ccn(C)c(=O)c3)OC(C)(C(F)(F)F)C2C)c1OC(F)F` (stereo not shown) [Compound 98, 3-[2-(difluoromethoxy)-4-fluoro-3-methyl-phenyl]-4,5-dimethyl-N-(1-methyl-2-oxo-4-pyridyl)-5-(trifluoromethyl)tetrahydrofuran-2-carboxamide], the 50% inhibitory concentration (IC50) under setting [1] is under 10 nM. On the same count and under the same terms, the value for `Cc1nocc1NC(=O)[C@@H]1O[C@@](C)(C(F)(F)F)[C@@H](C)[C@H]1c1ccc(F)c(F)c1OCCO` [Compound 558, (2R,3S,4S,5R)-3-(3,4-difluoro-2-(2-hydroxyethoxy)phenyl)-4,5-dimethyl-N-(3-methylisoxazol-4-yl)-5-(trifluoromethyl)tetrahydrofuran-2-carboxamide] was under 10 nM. On the same count and under the same terms, the value for `COc1c([C@H]2[C@H](C(=O)Nc3ncc(O)cn3)O[C@@](C)(C(F)(F)F)[C@H]2C)ccc(F)c1F` [Compound 444, (2R,3S,4S,5R)-3-(3,4-difluoro-2-methoxy-phenyl)-N-(5-hydroxypyrimidin-2-yl)-4,5-dimethyl-5-(trifluoromethyl)tetrahydrofuran-2-carboxamide] was 100 to 1000 nM. `COCC(C)(C)NCc1cc(NC(=O)[C@@H]2O[C@@](C)(C(F)(F)F)[C@@H](C)[C@H]2c2ccc(F)c(F)c2OC)ccn1` [Compound 410, (2R,3S,4S,5R)-3-(3,4-difluoro-2-methoxyphenyl)-N-(2-(((1-methoxy-2-methylpropan-2-yl)amino)methyl)-pyridin-4-yl)-4,5-dimethyl-5-(trifluoromethyl)-tetrahydrofuran-2-carboxamide]: under setting [1], the half-maximal inhibitory concentration (IC50) fell in the range of 10 to 100 nM. Turning to `COc1c([C@H]2[C@H](C(=O)Nc3ccnc(N4C(=O)CN5CCC4CC5)c3)O[C@@](C)(C(F)(F)F)[C@H]2C)ccc(F)c1F` [Compound 468, (2R,3S,4S,5R)-3-(3,4-difluoro-2-methoxyphenyl)-4,5-dimethyl-N-(2-(3-oxo-1,4-diazabicyclo[3.2.2]nonan-4-yl)pyridin-4-yl)-5-(trifluoromethyl)tetrahydrofuran-2-carboxamide], under setting [1], the IC50 was in the range of 10 to 100 nM. Turning to `COc1c([C@H]2[C@H](C(=O)Nc3ccnc(CN4CCC(F)(F)C4)c3)O[C@@](C)(C(F)(F)F)[C@H]2C)ccc(F)c1F` [Compound 182, (2R,3S,4S,5R)-3-(3,4-difluoro-2-methoxyphenyl)-N-(2-((3,3-difluoropyrrolidin-1-yl)methyl)pyridin-4-yl)-4,5-dimethyl-5-(trifluoromethyl)tetrahydrofuran-2-carboxamide], the concentration for half-maximal inhibition (IC50) under setting [1] lay within 10 to 100 nM. For the molecule `COc1c(C2C(C(=O)Nc3ccc(P(C)(C)=O)cc3)OC(C)(C(F)(F)F)C2C)ccc(F)c1F` (single isomer, unassigned) [Compound 39, 3-(3,4-difluoro-2-methoxy-phenyl)-N-(4-dimethylphosphorylphenyl)-4,5-dimethyl-5-(trifluoromethyl)tetrahydrofuran-2-carboxamide], the IC50 under setting [1] was in the range of 100 to 1000 nM. Same read-out and setting: the same measure for `COc1c([C@H]2[C@H](C(=O)Nc3ccnc(N4C(=O)CN(C)C[C@H]4C)c3)O[C@@](C)(C(F)(F)F)[C@H]2C)ccc(F)c1F` [Compound 465, (2R,3S,4S,5R)-3-(3,4-difluoro-2-methoxyphenyl)-N-(2-((R)-2,4-dimethyl-6-oxopiperazin-1-yl)pyridin-4-yl)-4,5-dimethyl-5-(trifluoromethyl)tetrahydrofuran-2-carboxamide]: under 10 nM.
